In patent US20260273107A1, “COMPOUND PHARMACEUTICAL PREPARATION CONTAINING OIL COMPONENT COMPRISING POLYOXYETHYLENE STRUCTURE” (CHUGAI SEIYAKU KABUSHIKI KAISHA, priority 2022, published 2026):
≈ marks a conversion by molar mass, not a printed value. Bridge positions count the residues as written; N and C are the ends. Square brackets hold non-standard residues; d marks the D form. Peptide text beside a SMILES is read from it. * marks the point of attachment. hPhe(3,5-F2-4-CF3) = N[C@@H](CCc1cc(F)c(C(F)(F)F)c(F)c1)C(=O)O; hPhe(3-Cl-4-CF3) = N[C@@H](CCc1ccc(C(F)(F)F)c(Cl)c1)C(=O)O; NMePhe(4-Me) = CN[C@@H](Cc1ccc(C)cc1)C(=O)O; NMeGly(cPent) = CN[C@H](C(=O)O)C1CCCC1; NMeCha = CN[C@@H](CC1CCCCC1)C(=O)O; Hyp = O=C(O)[C@@H]1C[C@@H](O)CN1; NMeI = CC[C@H](C)[C@H](NC)C(=O)O; NMeD = CN[C@@H](CC(=O)O)C(=O)O; NMeL = CN[C@@H](CC(C)C)C(=O)O; NMeA = CN[C@@H](C)C(=O)O; Piperidide = C1CCN(*)CC1; Ac5c = NC1(C(=O)O)CCCC1; Aze = O=C(O)[C@@H]1CCN1; Sar = CNCC(=O)O

What was measured:
[1] = Solubility in aqueous solution containing 0.3% or 1% Cremophor EL (Example 3-3); assay type: physicochemical; details: 25° C., 22 to 24 hours
Procedure: Evaluation of the solubility of the cyclic peptide compound in the presence of a surfactant was performed. To lyophilized powder of the compound, an aqueous solution containing 0.3% or 1% Cremophor EL (CreEL) was added, and after shaking (at 25° C., 1000 rpm, for 22 to 24 hours), the mixed solution was filtered through a filter, and the compound concentration of the filtrate was measured by LC/UV. Solubility (μg/mL) was calculated from the measured compound concentration.

[2] = Evaluation of Caco-2 membrane permeability; assay type: in vitro ADME; details: human, Apical FaSSIF/HBSS pH 6.0 to Basal HBSS 4% BSA pH 7.4, 180 minutes, after 18 to 24 hours preincubation, read-out: Caco2 (Papp)
Procedure: The permeability coefficient (Caco-2 Papp (cm/sec)) is calculated using a numerical expression 1.
[formula] • where dQ/dt is the permeation rate of the drug (amount of drug appearing on the Basal side per unit time), S is the total cell surface area, and C1 (0) is the concentration of drug added on the Apical side.
Caco-2 cells were cultured on 96-well Transwell for 3 weeks, then DMEM, FaSSIF (1% DMSO), and the compound were added to the Apical side, DMEM was added to the Basal side, and the cells were preincubated under 5% CO2 at 37° C. with shaking at 80 rpm for 18 to 24 hours. After the preincubation, the preincubation solutions on the Apical side and Basal side were sucked off and washed, a FaSSIF/HBSS buffer solution (1% DMSO) (pH 6.0) containing the compound was added to the Apical side, a HBSS buffer solution (4% BSA) (pH 7.4) was added to the Basal side, and measurement of membrane permeability was started. Each well was shaken under 5% CO2 at 37° C. and 80 rpm, and at 180 minutes after the start of shaking, a sample on the Basal side was collected, and the permeation amount was measured by LC/MS. From the permeation amount, the membrane permeability coefficient (Papp) was calculated. Note that the description “Caco-2 (cm/sec)” in the column in the table herein is used synonymously with “Papp (cm/sec)”.

[3] = Solubility of cyclic peptide compound in 50 mM phosphate buffer solution (pH 6.5), 37° C. (Example 3-3); assay type: physicochemical; details: shaking 22 to 24 hours, read-out: solubility in 50 mM phosphate buffer solution (PPB)
Procedure: Evaluation of the solubility of the cyclic peptide compound was performed. To lyophilized powder of the compound, a 50 mM phosphate buffer solution (PPB: Phosphate buffer, pH 6.5) was added, and after shaking (at 37° C., 1800 rpm, for 22 to 24 hours), the mixed solution was filtered through a filter, and the compound concentration of the filtrate was measured by LC/MS/MS. Solubility was calculated from the measured compound concentration. The solubilities of the compounds 3, 4, 6, 7, and 8 were 11 μg/mL, 1 μg/mL, 1 μg/mL, 15 μg/mL, and 5 μg/mL, respectively.

[4] = 0.3% Cremophor EL aqueous solution, read-out: solubility, 0.3% Cremophor EL
[5] = 1% Cremophor EL aqueous solution, read-out: solubility, 1% Cremophor EL

SMILES	solubility [1, 4]	solubility [1, 5]	Papp A→B at 180 min [2]	solubility [3]
CC[C@H](C)[C@@H]1NC(=O)[C@H](CC(C)C)N(C)C(=O)C[C@@H](C(=O)N2CCCCC2)N(C)C(=O)[C@H](C2CCCC2)N(C)C(=O)C2(CCCC2)NC(=O)[C@@H]2CCCN2C(=O)[C@H](CCc2ccc(C(F)(F)F)c(Cl)c2)NC(=O)CN(C)C(=O)[C@H](CC2CCCCC2)N(C)C(=O)[C@@H]2CCN2C(=O)[C@H](C)N(C)C1=O [Compound 6] ([NMeL]I[NMeA][Aze][NMeCha][Sar][hPhe(3-Cl-4-CF3)]P[Ac5c][NMeGly(cPent)][NMeD]-Piperidide; lactam N-11)	434 µg/mL (≈ 298 µM)	1450 µg/mL (≈ 999 µM)	0.61 ×10⁻⁶ cm/s	1 µg/mL (≈ 0.688 µM)
CCO[C@@H]1C[C@H]2C(=O)NC3(CCCC3)C(=O)N(C)[C@@H](C3CCCC3)C(=O)N(C)[C@H](C(=O)N(C)C)CC(=O)N(C)[C@@H](CC(C)C)C(=O)N[C@@H]([C@@H](C)CC)C(=O)N(C)[C@@H](C)C(=O)N3CC[C@H]3C(=O)N(C)[C@@H](CC3CCCCC3)C(=O)N(C)CC(=O)N[C@@H](CCc3cc(F)c(C(F)(F)F)c(F)c3)C(=O)N2C1 [Compound 8] ([NMeL]I[NMeA][Aze][NMeCha][Sar][hPhe(3,5-F2-4-CF3)][Hyp](Et)[Ac5c][NMeGly(cPent)][NMeD]-NMe2; lactam N-11)	356 µg/mL (≈ 244 µM)	1340 µg/mL (≈ 916 µM)	2.39 ×10⁻⁶ cm/s	5 µg/mL (≈ 3.43 µM)

Continued, values first:

solubility [1, 4]	solubility [1, 5]	Papp A→B at 180 min [2]	solubility [3]	SMILES
492 µg/mL (≈ 349 µM)	1640 µg/mL (≈ 1170 µM)	2.96 ×10⁻⁶ cm/s	15 µg/mL (≈ 10.6 µM)	CC[C@H](C)[C@@H]1NC(=O)[C@H](CC(C)C)N(C)C(=O)C[C@@H](C(=O)N(C)C)N(C)C(=O)[C@H]([C@@H](C)CC)N(C)C(=O)C2(CCCC2)NC(=O)[C@@H]2CCCN2C(=O)[C@H](CCc2ccc(C(F)(F)F)c(Cl)c2)NC(=O)CN(C)C(=O)[C@H](Cc2ccc(C)cc2)N(C)C(=O)[C@@H]2CCN2C(=O)[C@H](C)N(C)C1=O [Compound 7] ([NMeL]I[NMeA][Aze][NMePhe(4-Me)][Sar][hPhe(3-Cl-4-CF3)]P[Ac5c][NMeI][NMeD]-NMe2; lactam N-11)
450 µg/mL (≈ 291 µM)	1510 µg/mL (≈ 978 µM)	0.14 ×10⁻⁶ cm/s		CC[C@H](C)[C@@H]1NC(=O)[C@H](CC(C)C)N(C)C(=O)C[C@@H](C(=O)N2CCOCC2)N(C)C(=O)[C@H](C2CCCC2)N(C)C(=O)C2(CCCC2)NC(=O)[C@@H]2CCCN2C(=O)[C@H](CCc2ccc(C(F)(F)F)c(Cl)c2)NC(=O)CN(C)C(=O)[C@H](Cc2ccc(C(F)(F)F)cc2)N2CCCCC[C@@H](C2=O)N(C)C(=O)CN(C)C1=O [Compound 9]
583 µg/mL (≈ 387 µM)	1680 µg/mL (≈ 1120 µM)	0.7 ×10⁻⁶ cm/s		CCO[C@@H]1C[C@H]2C(=O)NC3(CCC3)C(=O)N(C)[C@@H](C3CCCC3)C(=O)N(C)[C@H](C(=O)N(C)C)CC(=O)N(C)[C@@H](CC)C(=O)N[C@@H]([C@@H](C)CC)C(=O)N(C)CC(=O)N(C)[C@H]3C/C=C\CCN(C3=O)[C@@H](Cc3ccc(C(F)(F)F)cc3)C(=O)N(C)CC(=O)N[C@@H](CCc3cc(F)c(C(F)(F)F)c(F)c3)C(=O)N2C1 [Compound 10]
